Experiments:
[1] = test system: LTB4-induced degranulation of purified human neutrophils; assay: LTB4-induced neutrophil degranulation (myeloperoxidase release); type: cell-based; settings: LTB4-induced MPO release; for inhibition at 30 µM: read-out: LTB-Induced Neutrophil Degranulation % Inhibition at 30 uM; for IC50: concentration-response, read-out: LTB-Induced Neutrophil Degranulation I50
Protocol: (§1) Each compound was tested in two in vitro models of LTB4 induced cell function. The cellular responses measured are presumed to be mediated via specific interactions of LTB4 with cellular receptors.
(§2) The cellular responses studied include 1) LTB4 -induced degranulation (release of myeloperoxidase) from purified human neutrophils and 2) LTB4 -induced adhesion of human neutrophils to latex beads. Each putative antagonist was tested at 30 uM for its effect on each response. Selected compounds were tested in a concentration-response fashion.
(1) Neutrophil Degranulation Assay
Neutrophils are isolated from human venous blood via a twostep sedimentation procedure, and contaminating erythrocytes are selectively lysed. The neutrophils were preincubated in 0.25% Hanks buffer containing bovine serum albumin (BSA) with 5 ug Cytochalasin B/ml cells for 5 minutes at 37° C. Neutrophils (4×10^6) are added to stimuli (LTB4 or buffer control) in the presence and absence of antagonist in Krebs-Ringer buffer to a final volume of 1.0 ml, and incubated at 37° C. for appropriate periods of time. At the end of the reaction period the neutrophils are pelleted by centrifugation at 3000 rpm for 5 minutes at 4° C.
Aliquots (0.2 ml) of the supernatants are added to polystyrene tubes to which are added the following: 0.6 ml )>25% Hanks BSA, 0.5 ml MPO buffer (0.2 M NaPO4, pH 6.2) and to start the color reaction 0.2 ml of a 1:1 v/v 0.05% H2 O2 :1.25 mg/ml dimethoxybenzidine (DMB). The reaction is allowed to run at room temperature for 15 minutes and is stopped by the addition of 0.05 ml 2% sodium azide. The developed color is quantitated in a spectrophotometer at 460 nm. The amount of myeloperoxidase (MPO) released by LTB4 stimulation can thus be determined. In order to determine the total amount of MPO in the cells an unstimulated control tube of neutrophils is lysed using 0.01 ml 10% Triton TX and the total MPO is determined via the color reaction and spectrophotometer reading. The activity of a given concentration of LTB4 is expressed as the percentage of the total MPO released. The activity of antagonists at a given concentration is expressed as a percentage of inhibiton of LTB4 -induced MPO release at a single concentration cf LTB4.

[2] = test system: LTB4-induced adhesion of human neutrophils to latex beads; assay: LTB4-induced neutrophil latex bead adhesion; type: cell-based; settings: albumin-coated latex beads, read-out: LTB-Induced Neutrophil Bead Adhesion % Inhibition at 30 uM
Protocol: as §1, §2
(2) Neutrophil Latex Bead Adhesion
Latex bead suspension (0.6 ml; 10% aqueous suspension; particle diameter=1u) is pipeted into a 1.5 ml eppendorf centrifuge tube. The beads are pelleted by centrifugation, the supernatant is discarded and the beads are washed 2 times with 1 ml 0.9% saline. To the pelleted beads is added 0.5 ml saline and 0.5 ml 20 mg/ml human serum albumin (HSA) in Krebs-Ringer buffer. Allow bead-albumin mixture to sit at room temperature for 10 minutes, centrifuge for 1 minute and remove the supernatant, and wash albumin-coated beads 3 times with saline. Resuspend the beads in 1 ml of Krebs-Ringer.
Human neutrophils are prepared as described for the neutrophil degranulation assay and 10^7 cells are added to 0.3 ml of Krebs-Ringerin the presence and absence of LTB4 and putative antagonist and are incubated at 37° for an appropriate period of time.
The albumin-coated beads are then added in 0.05 ml to give a final bead concentration of 1% v/v, resulting in a bead to neutrophil ratio of 100:1. The tubes containing cells and beads are then placed in an agitating water bath at 37° C. and 120 oscillation per minute for 10 minutes. The reaction is stopped by adding an equal volume of 2.5% gluteraldehyde in saline. The reaction tubes are allowed to stand at room temperature for 30 minutes. The cells are then washed 3 times (with centrifugation at 1000 rpm for 5 minutes) with saline to remove the unadhered latex beads and resuspended in 0.3 ml saline.
Wet mounts are prepared and adherence is examined by light microscopy at 400x. Adherence is scored by counting five randomly placed fields of at least 50 neutrophils per field. […] Activity of the antagonists is expressed as the percent inhibition of LTB4 induced adherence.

| Structure (SMILES) | inhibition at 30 µM [1] [%] | inhibition at 30 µM [2] [%] | IC50 [1] [µM] |
| --- | --- | --- | --- |
| O=C(O)CC(O)c1ccc2oc3ccc(C(O)Cc4ccccc4)cc3c2c1 (centres unmarked) [Compound 11, 3-[2-[8-(1-Hydroxy)-2-phenylethyl]dibenzofuranyl]-3-hydroxypropionic Acid] | 35 | 7 | – |
| CN(C)C(=O)CC(O)c1ccc2oc3ccc(C(O)Cc4ccccc4)cc3c2c1 (centres unmarked) [Compound 12, N,N-Dimethyl-3-[2-[8-(1-hydroxy)-2-phenylethyl]dibenzofuranyl]-3-hydroxypropanamide] | 100 | 14 | 13 |
| CN(C)C(=O)CCCC(O)c1ccc2oc3ccc(C(O)Cc4ccccc4)cc3c2c1 (centres unmarked) [Compound 41, N,N-Dimethyl-5-[2-[8-(1-hydroxy)-2-phenylethyl]dibenzofuranyl}-5-hydroxypentanamide] | 57 | 2 | 9 |
| O=C(CCC(O)c1ccc2oc3ccc(C(O)Cc4ccccc4)cc3c2c1)N1CCCC1 (centres unmarked) [Compound 23, N-[4-[2-[8-(1-Hydroxy)-2-phenylethyl]dibenzofuranyl]-4-hydroxybutanoyl]pyrrolidine] | 62 | 10 | – |
| CN(C)C(=O)CCC(O)c1ccc2oc3ccc(C(O)Cc4ccccc4)cc3c2c1 (centres unmarked) [Compound 22, N,N-Dimethyl-4-[2-[8-(1-hydroxy)-2-phenylethyl]dibenzofuran-2-yl]-4-hydroxybutanamide] | 100 | 1 | – |
| O=C(CCCC(O)c1ccc2oc3ccc(C(O)Cc4ccccc4)cc3c2c1)N1CCCC1 (centres unmarked) [Compound 42, N-[5-[2-[8-(1-Hydroxy)-2-phenylethyl]dibenzofuranyl]-5 hydroxypentanoyl]pyrrolidine] | 100 | 12 | 19 |
| O=C(O)CCCC(O)c1ccc2oc3ccc(C(O)Cc4ccccc4)cc3c2c1 (centres unmarked) [Compound 40, Sodium 5-[2-[8-(1-Hydroxy)-2-phenylethyl]dibenzofuranyl]-5-hydroxypentanoate] | 38 | 5 | – |
